Experimental data: US8569292B2, “Cyclic inhibitors of 11β-hydroxysteroid dehydrogenase 1” (Vitae Pharmaceuticals, Inc., priority 2008, dated 2013)

What was measured:
[1] = biological target: T1, 11β-HSD1 (Homo sapiens, UniProt P28845); assay: Biological Test Example 4: microsomal 11β-HSD1 in the presence of 50% human plasma; conditions: for Shift: IC50 in Test Example 4 divided by IC50 in Test Example 1
[2] = biological target: T1, 11β-HSD1; assay: biochemical; conditions: for inhibition at 0.1 µM: read-out: Average % inhibition at 100 nM
[3] = Biological Test Example 1 IC50 (nM)
[4] = IC50 Range, Biological Test Example 1

T1 sequence (P28845 whole entry): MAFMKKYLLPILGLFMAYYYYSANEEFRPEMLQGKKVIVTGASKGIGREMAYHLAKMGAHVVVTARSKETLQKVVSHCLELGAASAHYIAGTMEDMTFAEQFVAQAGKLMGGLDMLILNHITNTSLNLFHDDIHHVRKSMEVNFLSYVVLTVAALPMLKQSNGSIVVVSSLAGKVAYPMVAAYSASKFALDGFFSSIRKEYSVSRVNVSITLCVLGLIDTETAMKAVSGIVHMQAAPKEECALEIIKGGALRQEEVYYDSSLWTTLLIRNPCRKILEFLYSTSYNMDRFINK

SMILES	IC50 [1]	IC50 [2, 3]	IC50 [2, 4]	inhibition at 0.1 µM [2]	Shift [1]
C[C@@H](c1ccc(-c2ccncc2)cc1)N1CC[C@](CCC(N)=O)(c2ccc(F)cc2)OC1=O [EXAMPLE 74, 3-((R)-6-(4-fluorophenyl)-2-oxo-3-((S)-1-(4-(pyridin-4-yl)phenyl)ethyl)-1,3-oxazinan-6-yl)propanamide]	4.7 nM	1.4 nM	< 100 nM	95.7%	–
CC(=O)N(C)CCC[C@]1(c2ccccc2)CCN([C@@H](C)c2ccc(-c3ccnc(C)c3)cc2)C(=O)O1 [EXAMPLE 102, N-methyl-N-(3-((R)-3-((S)-1-(4-(2-methylpyridin-4-yl)phenyl)ethyl)-2-oxo-6-phenyl-1,3-oxazinan-6-yl)propyl)acetamide]	63 nM	3.6 nM	< 100 nM	94.3%	17.3
C[C@@H](c1ccc(-c2cccnc2)cc1)N1CC[C@](CCCO)(c2ccc(F)cc2)OC1=O [EXAMPLE 197, (R)-6-(4-fluorophenyl)-6-(3-hydroxypropyl)-3-((S)-1-(4-(pyridin-3-yl)phenyl)ethyl)-1,3-oxazinan-2-one]	5.7 nM	1.1 nM	< 100 nM	96.5%	–
CCOc1cc(-c2ccc([C@H](C)N3CC[C@](CC(C)(C)O)(c4ccccc4)OC3=O)cc2)cc(C)n1 [EXAMPLE 162, (S)-3-((S)-1-(4-(2-ethoxy-6-methylpyridin-4-yl)phenyl)ethyl)-6-(2-hydroxy-2-methylpropyl)-6-phenyl-1,3-oxazinan-2-one]	31.7 nM	1.4 nM	< 100 nM	87.2%	21.9
C[C@@H](c1ccc(-c2cccnc2)cc1)N1CC[C@](CCC(N)=O)(c2ccc(F)cc2)OC1=O [EXAMPLE 41, 3-((R)-6-(4-fluorophenyl)-2-oxo-3-((S)-1-(4-(pyridin-3-yl)phenyl)ethyl)-1,3-oxazinan-6-yl)propanamide]	11 nM	1.9 nM	< 100 nM	96.8%	–
C[C@@H](c1ccc(-c2ncc(C(=O)NC(C)(C)C)s2)cc1)N1CC[C@](CC(C)(C)C#N)(c2ccccc2)OC1=O [EXAMPLE 24, N-tert-butyl-2-(4-((S)-1-((R)-6-(2-cyano-2-methylpropyl)-2-oxo-6-phenyl-1,3-oxazinan-3-yl)ethyl)phenyl)thiazole-5-carboxamide]	4.4 nM	0.8 nM	< 100 nM	96.9%	5.2
C[C@@H](c1ccc(-c2cnccn2)cc1)N1CC[C@](CCCO)(c2ccc(F)cc2)OC1=O [EXAMPLE 108, (R)-6-(4-fluorophenyl)-6-(3-hydroxypropyl)-3-((S)-1-(4-(pyrazin-2-yl)phenyl)ethyl)-1,3-oxazinan-2-one]	7.1 nM	1.8 nM	< 100 nM	98.1%	4.0
C[C@@H](c1ccc(-c2cc(C#N)ccn2)cc1)N1CC[C@](CC(C)(C)O)(c2ccccc2)OC1=O [EXAMPLE 164, 2-(4-((S)-1-((S)-6-(2-hydroxy-2-methylpropyl)-2-oxo-6-phenyl-1,3-oxazinan-3-yl)ethyl)phenyl)isonicotinonitrile]	22.2 nM	1.2 nM	< 100 nM	99.4%	18.2
C[C@@H](c1ccc(-c2cnc(C#N)cn2)cc1)N1CC[C@](CC(C)(C)O)(c2ccc(F)cc2)OC1=O [EXAMPLE 153, 5-(4-((S)-1-((S)-6-(4-fluorophenyl)-6-(2-hydroxy-2-methylpropyl)-2-oxo-1,3-oxazinan-3-yl)ethyl)phenyl)pyrazine-2-carbonitrile]	9.2 nM	1.7 nM	< 100 nM	94.7%	5.4
C[C@@H](c1ccc(-c2cncc(C(N)=O)n2)cc1)N1CC[C@](CC(C)(C)O)(c2ccc(F)cc2)OC1=O [EXAMPLE 159, 6-(4-{1-[6-(4-Fluoro-phenyl)-6-(2-hydroxy-2-methyl-propyl)-2-oxo-[1,3]oxazinan-3-yl]-ethyl}-phenyl)-pyrazine-2-carboxylic acid amide]	7.3 nM	3.3 nM	< 100 nM	94.6%	2.2
C[C@@H](c1ccc(-c2ccc(C(=O)NC3CC3)cn2)cc1)N1CC[C@](CC(C)(C)C#N)(c2ccccc2)OC1=O [EXAMPLE 2, 6-(4-((S)-1-((R)-6-(2-cyano-2-methylpropyl)-2-oxo-6-phenyl-1,3-oxazinan-3-yl)ethyl)phenyl)-N-cyclopropylnicotinamide]	2.9 nM	0.8 nM	< 100 nM	99%	3.8
C[C@@H](c1ccc(-c2ccccn2)cc1)N1CC[C@](CCC(N)=O)(c2ccc(F)cc2)OC1=O [EXAMPLE 60, 3-((R)-6-(4-fluorophenyl)-2-oxo-3-((S)-1-(4-(pyridin-2-yl)phenyl)ethyl)-1,3-oxazinan-6-yl)propanamide]	20.8 nM	1.6 nM	< 100 nM	91.9%	13.1
